Patent publication US8680012B2, “4-phenyl-pyrane-3,5-diones,4-phenyl-thiopyrane-3,6-diones and cyclohexanetriones as novel herbicides” (Syngenta Crop Protection LLC, priority 2006, dated 2014)

Tests used:
Type in all cases: in vivo
[1] = tested on: Avena fatua (AVEFA); assay: Example B pre-emergence herbicidal activity, glasshouse pot test; conditions: 312 h, evaluated after 13 days, read-out: Pre-emergence activity AVEFA (100=total damage to plant; 0=no damage to plant); for pest or weed control at 1000 g/ha: rate 1000 g/ha; for pest or weed control at 250 g/ha: rate 250 g/ha
Outline: (§1)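 Damage rating, 0–100, at 13 d after application. Spray solution: a.i. in acetone/water (50:50), 0.5% Tween 20. Applied 1 d after sowing or at 8 d growth; pots held at 24/16 °C, 14 h light, 65% humidity.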

[2] = tested on: Alopecurus myosuroides (ALOMY); assay: as above; conditions: 312 h, evaluated after 13 days, read-out: Pre-emergence activity ALOMY (100=total damage to plant; 0=no damage to plant); for pest or weed control at 1000 g/ha: rate 1000 g/ha; for pest or weed control at 250 g/ha: rate 250 g/ha
Outline: as §1

[3] = tested on: Setaria faberi (SETFA); assay: as above; conditions: 312 h, evaluated after 13 days, read-out: Pre-emergence activity SETFA (100=total damage to plant; 0=no damage to plant); for pest or weed control at 1000 g/ha: rate 1000 g/ha; for pest or weed control at 250 g/ha: rate 250 g/ha
Outline: as §1

[4] = tested on: Echinochloa crus-galli (ECHCG); assay: as above; conditions: 312 h, evaluated after 13 days, read-out: Pre-emergence activity ECHCG (100=total damage to plant; 0=no damage to plant); for pest or weed control at 1000 g/ha: rate 1000 g/ha; for pest or weed control at 250 g/ha: rate 250 g/ha
Outline: as §1

[5] = tested on: Amaranthus retroflexus (AMARE); assay: as above; conditions: 312 h, evaluated after 13 days, read-out: Pre-emergence activity AMARE (100=total damage to plant; 0=no damage to plant); for pest or weed control at 1000 g/ha: rate 1000 g/ha; for pest or weed control at 250 g/ha: rate 250 g/ha
Outline: as §1

[6] = tested on: Solanum nigrum (SOLNI); assay: as above; conditions: 312 h, evaluated after 13 days, read-out: Pre-emergence activity SOLNI (100=total damage to plant; 0=no damage to plant); for pest or weed control at 1000 g/ha: rate 1000 g/ha; for pest or weed control at 250 g/ha: rate 250 g/ha
Outline: as §1

[7] = tested on: Avena fatua (AVEFA); assay: Example B post-emergence herbicidal activity, glasshouse pot test; conditions: 312 h, evaluated after 13 days, read-out: Post-emergence activity AVEFA (100=total damage to plant; 0=no damage to plant); for pest or weed control at 1000 g/ha: rate 1000 g/ha; for pest or weed control at 250 g/ha: rate 250 g/ha
Outline: as §1

[8] = tested on: Alopecurus myosuroides (ALOMY); assay: as above; conditions: 312 h, evaluated after 13 days, read-out: Post-emergence activity ALOMY (100=total damage to plant; 0=no damage to plant); for pest or weed control at 1000 g/ha: rate 1000 g/ha; for pest or weed control at 250 g/ha: rate 250 g/ha
Outline: as §1

[9] = tested on: Setaria faberi (SETFA); assay: as above; conditions: 312 h, evaluated after 13 days, read-out: Post-emergence activity SETFA (100=total damage to plant; 0=no damage to plant); for pest or weed control at 1000 g/ha: rate 1000 g/ha; for pest or weed control at 250 g/ha: rate 250 g/ha
Outline: as §1

[10] = tested on: Echinochloa crus-galli (ECHCG); assay: as above; conditions: 312 h, evaluated after 13 days, read-out: Post-emergence activity ECHCG (100=total damage to plant; 0=no damage to plant); for pest or weed control at 1000 g/ha: rate 1000 g/ha; for pest or weed control at 250 g/ha: rate 250 g/ha
Outline: as §1

[11] = tested on: Amaranthus retroflexus (AMARE); assay: as above; conditions: 312 h, evaluated after 13 days, read-out: Post-emergence activity AMARE (100=total damage to plant; 0=no damage to plant); for pest or weed control at 1000 g/ha: rate 1000 g/ha; for pest or weed control at 250 g/ha: rate 250 g/ha
Outline: as §1

[12] = tested on: Solanum nigrum (SOLNI); assay: as above; conditions: 312 h, evaluated after 13 days, read-out: Post-emergence activity SOLNI (100=total damage to plant; 0=no damage to plant); for pest or weed control at 1000 g/ha: rate 1000 g/ha; for pest or weed control at 250 g/ha: rate 250 g/ha
Outline: as §1

Compound | pest or weed control at 1000 g/ha [1] | pest or weed control at 1000 g/ha [2] | pest or weed control at 1000 g/ha [3] | pest or weed control at 1000 g/ha [4] | pest or weed control at 1000 g/ha [5] | pest or weed control at 1000 g/ha [6] | pest or weed control at 1000 g/ha [7] | pest or weed control at 1000 g/ha [8] | pest or weed control at 1000 g/ha [9] | pest or weed control at 1000 g/ha [10] | pest or weed control at 1000 g/ha [11] | pest or weed control at 1000 g/ha [12] | pest or weed control at 250 g/ha [1] | pest or weed control at 250 g/ha [2] | pest or weed control at 250 g/ha [3] | pest or weed control at 250 g/ha [4] | pest or weed control at 250 g/ha [5] | pest or weed control at 250 g/ha [6] | pest or weed control at 250 g/ha [7] | pest or weed control at 250 g/ha [8] | also measured
CCc1ccc(-c2ccc(Cl)cc2)cc1C1=C(OC(=O)C(C)CC)C(C)(C)OC(C)(C)C1=O [Compound D-11] | 0% | 20% | 90% | 20% | 0% | 0% | 0% | 40% | 90% | 100% | 0% | 0% | – | – | – | – | – | – | – | – | –
Cc1ccc(-c2ccc(Cl)c(F)c2)cc1C1=C(O)C(C)(C)C(=O)C(C)(C)C1=O [Compound B-23] | – | – | – | – | – | – | – | – | – | – | – | – | 0% | 0% | 0% | 10% | 0% | 0% | 0% | 30% | pest or weed control at 250 g/ha [9]: 70%; pest or weed control at 250 g/ha [10]: 60%; pest or weed control at 250 g/ha [11]: 0%; pest or weed control at 250 g/ha [12]: 0%
Cc1ccc(-c2ccc(C(C)(C)C)cc2)cc1C1=C(O)C(C)(C)OC(C)(C)C1=O [Compound A-21] | 50% | 100% | 100% | 90% | 60% | 50% | 60% | 40% | 60% | 90% | 20% | 20% | – | – | – | – | – | – | – | – | –
CCc1ccc(-c2ccc(Cl)nc2Cl)cc1C1=C(O)C(C)(C)C(=O)C(C)(C)C1=O [Compound B-29] | – | – | – | – | – | – | – | – | – | – | – | – | 0% | 0% | 30% | 20% | 0% | 0% | 0% | 30% | pest or weed control at 250 g/ha [9]: 80%; pest or weed control at 250 g/ha [10]: 100%; pest or weed control at 250 g/ha [11]: 20%; pest or weed control at 250 g/ha [12]: 30%
